Measured values as given in paper PMC3920478, “Small molecule-mediated refolding and activation of myosin motor function” (eLife, 2014).
Values joined by “and” are separate entries in the source; they are usually repeats but may differ in a detail not shown here. Identical values can stand only once.

Key:
[1] = target: T1, β-cardiac myosin (Sus scrofa, UniProt P79293); test: Steady-state basal and actin-activated Mg2+-ATPase (NADH-coupled assay); type: biochemical, Porcine
Target sequence in this assay (P79293 1-810 limits assumed): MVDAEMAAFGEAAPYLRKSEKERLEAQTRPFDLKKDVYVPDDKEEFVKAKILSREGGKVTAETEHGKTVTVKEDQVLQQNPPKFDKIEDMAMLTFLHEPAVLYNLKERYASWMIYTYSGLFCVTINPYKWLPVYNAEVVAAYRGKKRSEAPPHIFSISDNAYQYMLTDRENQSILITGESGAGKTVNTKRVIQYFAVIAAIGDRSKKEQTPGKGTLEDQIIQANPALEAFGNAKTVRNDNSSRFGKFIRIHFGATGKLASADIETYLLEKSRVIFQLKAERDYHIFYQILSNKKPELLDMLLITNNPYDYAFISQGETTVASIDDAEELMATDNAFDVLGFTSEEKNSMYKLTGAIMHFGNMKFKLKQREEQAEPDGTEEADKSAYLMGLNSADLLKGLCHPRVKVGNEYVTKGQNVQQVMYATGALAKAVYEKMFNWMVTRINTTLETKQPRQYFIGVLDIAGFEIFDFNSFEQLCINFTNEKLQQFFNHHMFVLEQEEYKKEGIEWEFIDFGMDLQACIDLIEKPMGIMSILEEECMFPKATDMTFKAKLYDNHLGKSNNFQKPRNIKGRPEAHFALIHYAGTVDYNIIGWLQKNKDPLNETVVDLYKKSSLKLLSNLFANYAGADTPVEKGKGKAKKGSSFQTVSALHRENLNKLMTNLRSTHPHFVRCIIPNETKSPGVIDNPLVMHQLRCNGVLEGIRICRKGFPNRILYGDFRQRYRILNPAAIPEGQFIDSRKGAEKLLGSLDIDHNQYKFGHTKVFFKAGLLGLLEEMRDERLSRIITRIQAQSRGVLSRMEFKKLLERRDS

[2] = target: T2, Dd myosin-2 ΔSH3 (Dictyostelium discoideum, UniProt P08799, DEL33-79); test: In vitro motility assay (actin filament sliding); type: biochemical; settings: 100 µM EMD 57033
T2 construct: Dd myosin-2 ΔSH3, a recombinant motor domain construct that lacks this subdomain; made in house
T2 sequence (P08799 other isoform, or with tags, fused parts or gaps DEL33-79): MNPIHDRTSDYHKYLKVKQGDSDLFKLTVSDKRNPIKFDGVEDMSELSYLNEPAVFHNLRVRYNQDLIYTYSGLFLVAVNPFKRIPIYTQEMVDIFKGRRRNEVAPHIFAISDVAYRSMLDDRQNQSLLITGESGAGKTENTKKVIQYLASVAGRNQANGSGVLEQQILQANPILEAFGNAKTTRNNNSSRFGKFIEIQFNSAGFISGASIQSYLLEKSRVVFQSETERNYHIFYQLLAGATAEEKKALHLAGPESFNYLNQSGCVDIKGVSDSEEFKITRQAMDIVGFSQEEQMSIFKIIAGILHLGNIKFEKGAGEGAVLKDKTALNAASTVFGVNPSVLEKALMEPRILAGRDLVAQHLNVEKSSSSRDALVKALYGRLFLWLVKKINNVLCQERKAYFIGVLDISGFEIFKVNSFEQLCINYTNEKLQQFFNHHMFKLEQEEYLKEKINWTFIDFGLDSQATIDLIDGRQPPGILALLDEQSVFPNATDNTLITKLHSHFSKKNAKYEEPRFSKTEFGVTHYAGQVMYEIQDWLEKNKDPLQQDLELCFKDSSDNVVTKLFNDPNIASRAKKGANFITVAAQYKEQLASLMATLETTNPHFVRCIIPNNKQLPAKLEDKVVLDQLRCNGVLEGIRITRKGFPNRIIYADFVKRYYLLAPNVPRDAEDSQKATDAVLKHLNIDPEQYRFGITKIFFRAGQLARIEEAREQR
Description: Initial blind docking to homology models of the β-cardiac myosin motor domain in the post-rigor state indicated preferred binding of the drug to a region near the small N-terminal, SH3-like βbarrel subdomain. Important contacts are predicted to involve the SH3-like subdomain (residues 34–72) and two α-helices (residues 20–28 and 98–111). […] The sets of binding poses differ mainly in the orientation of the dimethylated catechol group, occupying either of the two possible branches of the Y, while the thiadiazinone moiety appears little affected and resides in the root of the Y shaped cavity (Figure 2A,B). Potential residues involved in the binding of the thiadiazinone and tetrahydroquinoline moieties of the compound include Arg23, Asp85, Lys86, Asp107, Arg108, and Ser111. The dimethylated catechol moiety is mainly bound by residues Lys34, Lys48, and Gln79, and thus, interacts with the SH3-like β-barrel.
(§1) Actin-sliding motility was performed at 20°C using an Olympus IX81 (Olympus, Hamburg, Germany) inverted fluorescence microscope as described previously ([Fujita-Becker et al., 2005]). Average sliding velocities were determined from the Gaussian distribution of automatically tracked actin filaments using DiaTrack 3.01 (Semasopht, Chavannes, Switzerland) and Origin 7.0 (OriginLab Corporation, Northampton, MA). Errors indicate standard deviations.

[3] = test system: Dd myosin-1B, -1C, -1D, -1E motor domains; test: Steady-state basal and actin-activated Mg2+-ATPase (NADH-coupled assay); type: biochemical, Dictyostelium discoideum
Method: Rabbit fast skeletal muscle heavy meromyosin (HMM) was prepared as described by [Margossian and Lowey (1982)]. Porcine β-cardiac myosin was prepared essentially as described by [Pant et al. (2009)] and [Jacques et al. (2008)] and further purified by gel filtration. S1 and HMM fragments were produced by proteolytic digestion of the full-length proteins with 0.05 mg/ml papain (10 min, 25°C) for S1 and with 0.1 mg/ml TLCK-treated α-chymotrypsin (15 min, 25°C) for HMM. Reactions were stopped with specific protease inhibitors for papain (10 µM E−64) and chymotrypsin (10 µM chymostatin, 1 mM benzamidine). Proteolytic fragments were further purified by actin-coprecipitation. Pellets were washed twice and myosin was extracted from the pellets using ATP containing buffer. Gel filtration was used to further increase purity of myosin S1 and HMM fragments. […]
Basal and actin-activated Mg^2+-ATPase activities were measured using the NADH-coupled assay described previously ([Furch et al., 1998]) adapted for higher throughput screens for a temperature controlled plate reader (Multiscan FC, Thermo Scientific, Waltham, MA) at 25°C. […]

[4] = target: Skeletal muscle myosin-2 (HMM); test: as above; type: biochemical, Rabbit
Method: Rabbit fast skeletal muscle heavy meromyosin (HMM) was prepared as described by [Margossian and Lowey (1982)]. Porcine β-cardiac myosin was prepared essentially as described by [Pant et al. (2009)] and [Jacques et al. (2008)] and further purified by gel filtration. S1 and HMM fragments were produced by proteolytic digestion of the full-length proteins with 0.05 mg/ml papain (10 min, 25°C) for S1 and with 0.1 mg/ml TLCK-treated α-chymotrypsin (15 min, 25°C) for HMM. Reactions were stopped with specific protease inhibitors for papain (10 µM E−64) and chymotrypsin (10 µM chymostatin, 1 mM benzamidine). Proteolytic fragments were further purified by actin-coprecipitation. Pellets were washed twice and myosin was extracted from the pellets using ATP containing buffer. Gel filtration was used to further increase purity of myosin S1 and HMM fragments. His-tagged motor domain constructs of Dd myosin-2, Dd myosin-1B, Dd myosin-1C, Dd myosin-1D, Dd myosin-1E, Dd myosin-5b fused to two Dd α-actinin repeats substituting the light-chain binding domains ([Anson et al., 1996]) were expressed in Dd AX3-ORF + cells and purified by Ni^2+-chelate affinity chromatography ([Manstein and Hunt, 1995]).
Basal and actin-activated Mg^2+-ATPase activities were measured using the NADH-coupled assay described previously ([Furch et al., 1998]) adapted for higher throughput screens for a temperature controlled plate reader (Multiscan FC, Thermo Scientific, Waltham, MA) at 25°C. […] Control measurements were carried out in the absence of drug, as well as in the presence of according concentrations of the non-binding (−)-enantiomer EMD 57439 to account for possible absorption effects. […] Data points are mean values from 3 to 5 independent experiments. Error bars indicate standard deviations.

[5] = target: T1, β-cardiac myosin; test: In vitro motility assay (actin filament sliding); type: biochemical, Porcine; set-up: β-Cardiac myosin-2 (S1, full-length); from tissue; host or cells: porcine cardiac muscle
Description: In addition, the fraction of moving filaments increased from <75% to >95%. […] In initial experiments, we determined the minimal concentration of α-actinin molecules that generate sufficient load to stall the movement of actin filaments for a given surface density of myosin heads. […] Next, we generated in vitro motility flow cells with actin filaments held at stall force. […] The time-dependence of the recovery of motile activity is best fit by a hyperbola. A plateau value of 0.4 μm s^−1 is reached after more than 2 hr (Figure 1G).
as §1
Target sequence in this assay (P79293 whole entry): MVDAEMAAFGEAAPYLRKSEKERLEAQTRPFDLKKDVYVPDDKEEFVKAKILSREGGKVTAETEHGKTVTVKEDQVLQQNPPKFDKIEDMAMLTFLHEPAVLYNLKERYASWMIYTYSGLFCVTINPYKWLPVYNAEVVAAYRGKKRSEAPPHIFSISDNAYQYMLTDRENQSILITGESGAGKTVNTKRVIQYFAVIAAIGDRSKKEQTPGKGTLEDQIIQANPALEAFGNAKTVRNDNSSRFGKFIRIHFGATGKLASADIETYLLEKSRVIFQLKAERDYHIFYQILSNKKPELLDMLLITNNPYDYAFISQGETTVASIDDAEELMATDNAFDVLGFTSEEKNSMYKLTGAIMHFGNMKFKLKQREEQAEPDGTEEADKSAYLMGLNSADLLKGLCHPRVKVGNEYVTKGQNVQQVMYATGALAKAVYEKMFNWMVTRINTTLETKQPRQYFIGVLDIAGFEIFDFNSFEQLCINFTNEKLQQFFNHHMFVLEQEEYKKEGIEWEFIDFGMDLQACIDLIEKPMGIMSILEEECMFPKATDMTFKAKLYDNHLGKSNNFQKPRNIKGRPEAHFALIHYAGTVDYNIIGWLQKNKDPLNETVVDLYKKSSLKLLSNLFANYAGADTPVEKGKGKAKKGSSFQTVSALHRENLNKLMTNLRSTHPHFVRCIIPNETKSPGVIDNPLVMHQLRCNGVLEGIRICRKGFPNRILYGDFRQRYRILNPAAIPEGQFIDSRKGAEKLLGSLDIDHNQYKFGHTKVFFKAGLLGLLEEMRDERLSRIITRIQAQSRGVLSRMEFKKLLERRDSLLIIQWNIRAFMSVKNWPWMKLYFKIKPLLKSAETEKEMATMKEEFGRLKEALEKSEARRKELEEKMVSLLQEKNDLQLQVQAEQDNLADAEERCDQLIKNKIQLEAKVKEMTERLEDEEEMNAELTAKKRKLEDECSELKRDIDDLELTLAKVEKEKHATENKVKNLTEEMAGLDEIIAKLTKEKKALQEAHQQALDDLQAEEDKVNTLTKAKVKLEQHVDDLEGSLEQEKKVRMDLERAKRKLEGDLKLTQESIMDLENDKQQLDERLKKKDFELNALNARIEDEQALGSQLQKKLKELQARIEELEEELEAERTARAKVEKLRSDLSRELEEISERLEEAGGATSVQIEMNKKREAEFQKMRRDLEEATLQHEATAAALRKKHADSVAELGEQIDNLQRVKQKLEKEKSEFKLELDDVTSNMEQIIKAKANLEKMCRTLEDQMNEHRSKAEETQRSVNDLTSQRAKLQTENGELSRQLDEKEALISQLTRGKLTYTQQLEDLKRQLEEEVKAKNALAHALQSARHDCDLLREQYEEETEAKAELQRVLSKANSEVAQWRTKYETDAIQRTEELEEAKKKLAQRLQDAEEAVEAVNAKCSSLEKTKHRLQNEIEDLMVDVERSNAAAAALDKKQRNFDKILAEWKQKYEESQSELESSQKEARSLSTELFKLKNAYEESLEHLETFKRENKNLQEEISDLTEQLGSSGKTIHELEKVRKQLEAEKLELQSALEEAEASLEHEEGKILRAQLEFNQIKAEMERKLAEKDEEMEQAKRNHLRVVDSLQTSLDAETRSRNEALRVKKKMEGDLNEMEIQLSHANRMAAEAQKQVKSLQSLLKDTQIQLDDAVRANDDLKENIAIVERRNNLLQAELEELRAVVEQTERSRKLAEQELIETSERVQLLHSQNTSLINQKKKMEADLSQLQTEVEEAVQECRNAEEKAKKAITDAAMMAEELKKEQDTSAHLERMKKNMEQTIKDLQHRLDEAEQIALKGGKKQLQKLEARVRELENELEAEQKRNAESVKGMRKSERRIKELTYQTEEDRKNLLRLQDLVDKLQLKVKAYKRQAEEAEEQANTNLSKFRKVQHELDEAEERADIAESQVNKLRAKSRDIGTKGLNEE

[6] = target: T3, β-cardiac myosin motor domain (Sus scrofa, UniProt P79293); test: Melting temperature by circular dichroism at 222 nm; set-up: species or system Porcine; settings: nucleotide-free, low salt, 100 µM (saturating) EMD 57033
T3 construct: Melting curves of the β-cardiac myosin motor domain as determined by circular dichroism spectroscopy at 222 nm; from tissue; host or cells: porcine cardiac muscle
T3 sequence (P79293 1-843 limits assumed): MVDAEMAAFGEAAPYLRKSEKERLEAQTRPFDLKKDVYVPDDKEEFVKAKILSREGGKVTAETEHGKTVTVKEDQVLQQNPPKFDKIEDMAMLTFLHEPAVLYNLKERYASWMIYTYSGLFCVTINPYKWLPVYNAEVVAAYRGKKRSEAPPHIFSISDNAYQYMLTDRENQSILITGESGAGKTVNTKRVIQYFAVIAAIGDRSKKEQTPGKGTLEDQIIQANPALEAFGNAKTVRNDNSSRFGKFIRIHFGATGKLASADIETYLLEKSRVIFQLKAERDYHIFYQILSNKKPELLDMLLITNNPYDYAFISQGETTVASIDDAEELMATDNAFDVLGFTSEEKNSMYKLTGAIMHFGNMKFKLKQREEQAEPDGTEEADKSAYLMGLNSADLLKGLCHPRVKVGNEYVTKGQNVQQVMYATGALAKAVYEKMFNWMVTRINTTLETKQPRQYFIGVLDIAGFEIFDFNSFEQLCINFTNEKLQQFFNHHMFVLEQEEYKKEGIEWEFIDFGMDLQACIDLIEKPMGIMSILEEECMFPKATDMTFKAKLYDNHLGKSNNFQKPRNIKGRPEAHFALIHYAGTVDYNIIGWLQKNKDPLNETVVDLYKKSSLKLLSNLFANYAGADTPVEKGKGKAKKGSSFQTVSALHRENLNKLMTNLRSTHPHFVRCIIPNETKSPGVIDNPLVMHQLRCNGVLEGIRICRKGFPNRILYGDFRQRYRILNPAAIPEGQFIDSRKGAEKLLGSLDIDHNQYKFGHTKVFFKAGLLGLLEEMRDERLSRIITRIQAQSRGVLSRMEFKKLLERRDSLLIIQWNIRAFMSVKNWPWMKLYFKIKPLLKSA
Method: Circular dichroism and differential static light scattering experiments were performed to determine Tm.
Protein solutions were diluted to a concentration of 0.3 mg/ml in a buffer containing 5 mM KPi pH 7.5, 15 mM KCl. Denaturation of β-cardiac myosin was measured by monitoring the temperature-dependent changes of ellipticity at 222 nm in a temperature controlled π*-180 Spectrometer equipped with a circular dichroism unit (Applied Photophysics, Leatherhead, UK). Measurements were performed in a 0.3-cm path length Quartz cuvette with a temperature gradient of 1°C min^−1. The transition midpoint of the unfolding reaction was calculated by fitting a Boltzmann function to the experimental data. Prior to measurements, the storage buffer of β-cardiac myosin that contains DTT and sucrose were exchanged using PD MiniTrap G-25 (GE Healthcare, Little Chalfont, UK) size exclusion columns equilibrated with CD Buffer (5 mM KPi pH 7.5, 15 mM KCl).

[7] = test system: dogs with heart failure; set-up: method as in Senzaki et al., 2000; settings: ref Senzaki et al., 2000; cited from earlier work

Compound: COc1ccc(C(=O)N2CCCc3cc(C4=NNC(=O)SC4C)ccc32)cc1OC (stereo not shown) [EMD 57033]
- Ea ∼Change (−fold), reduction ([1]; EMD 57033 vs control): 1.5 fold
- Ea (Arrhenius activation energy of ATP turnover) ([1]; in presence of EMD 57033, 25–45°C): 7.41 kcal/mol and 7.41 ± 0.72 kcal/mol
- Actin filament sliding velocity enhancement [2]: no actin filament sliding velocity enhancement was observed
- Normalized maximal ATPase activation (basal) [3]: no effect
- Normalized maximal ATPase activation (with 30 µM actin) ([3]; 30 µM actin): no effect
- AC50 [4]: 15.1 µM
- Activation potency relative to β-cardiac myosin (weaker) [4]: twofold
- Normalized maximal ATPase activation (basal) [4]: 1.6
- Normalized maximal ATPase activation (with 30 µM actin) ([4]; 30 µM actin): 2.2
- Increase of actin filament sliding velocity [5]: 1.8 fold
- Fraction of moving filaments ([5]; in presence of EMD 57033): > 95%
- Tm (melting temperature) [6]: 53.6 ± 1.9 °C
- Haemodynamic effects in failing heart [7]: potent positive inotropic effects, reduced oxygen cost of contraction, and enhanced diastolic chamber performance
